Assay results: paper PMC6079455, “Discovery of Novel Caeridins from the Skin Secretion of the Australian White's Tree Frog, Litoria caerulea” (International Journal of Genomics, 2018)
Ends that are not written are not given here.

Key:
MRSA NCTC12493 = test: Antimicrobial test (broth microdilution); type: cell-based, methicillin-resistant S. aureus; details: for MIC: MHB, 5 × 10^5 CFU/ml, 37°C overnight, 550 nm
Method: (§1) The antimicrobial activities were tested by the broth microdilution method and evaluated by the determination of MIC values against different tested microorganisms, the Gram-positive bacteria, S. aureus (NCTC 10788), E. faecalis (NCTC12697), and MRSA (NCTC 12493); the Gram-negative bacterium, E. coli (NCTC 10418); and the yeast, C. albicans (NCYC 1467). The microorganisms were cultured to their log phase in MHB and diluted to 5 × 10^5 CFU/ml then subsequently treated with peptide solutions of gradient concentrations. After incubation at 37°C overnight, the growth of microorganisms was detected at a wavelength of 550 nm using a Synergy HT plate reader (Biolise BioTek ELx808, Winooski, VT, USA). The MICs were determined as the lowest concentration of peptide where […].

E. faecalis NCTC12697 = test: Antimicrobial test (broth microdilution); type: cell-based, Enterococcus faecalis; details: for MIC: MHB, 5 × 10^5 CFU/ml, 37°C overnight, 550 nm
Method: as §1

C. albicans NCYC1467 = test: Antimicrobial test (broth microdilution); type: cell-based, Candida albicans; details: for MIC: MHB, 5 × 10^5 CFU/ml, 37°C overnight, 550 nm
Method: as §1

S. aureus = test: Membrane permeability on S. aureus (SYTOX Green); type: cell-based, Staphylococcus aureus; details: 2 h; for membrane-permeabilising activity on S. aureus: up to 512 μM
Method: The cell membrane permeability of S. aureus was tested with SYTOX Green Nucleic Acid Stain (Life Technologies, Carlsbad, CA, USA). The log-phase S. aureus was pelleted and suspended in 5% TSB in 0.85% NaCl solution to achieve 1 × 10^8 CFU/ml cells which was then treated with peptide solutions at 37°C for 2 h. The maximum membrane-compromised S. aureus was produced by 70% isopropanol treatment. Subsequently, cells were mixed with 5 μM SYTOX Green stain and incubated in the dark for 10 min. The fluorescence was measured in a 37°C Synergy HT plate reader (Biolise BioTek ELx808, Winooski, VT, USA) at excitation and emission wavelengths of 480 nm and 528 nm, respectively. The membrane permeability was calculated as (1) Membrane permeability%=F−F0/F1−F0×100%, where F represents the processed fluorescence intensity with peptide treatments, F0 represents the processed fluorescence intensity of untreated S. aureus, and F1 represents the processed fluorescence intensity in the maximum membrane-compromised S. aureus (70% isopropanol-treated). The fluorescence intensities of background were subtracted prior to calculation.

E. coli = test: Membrane permeability on E. coli (ONPG / β-galactosidase); type: cell-based, Escherichia coli; details: ONPG hydrolysis, absorbance 420 nm, 0-30 min, 37°C
Method: The membrane permeabilsation of E.coli was determined by measuring the release of β-galactosidase activity from E. coli into the culture medium with ONPG as the substrate. The log-phase E. coli was grown in MHB medium containing 2% lactose at 37°C, and the cells were pelleted. The cell pellets were suspended in 10 mM PBS (pH 7.4) containing 1.5 mM ONPG and diluted to 1 × 10^8 CFU/ml. Aliquots of cells were incubated with different concentrations of peptides at 37°C. Permeabilisation was measured at 420 nm every 2 min from 0 to 30 min, which reflects ONPG influx into the cells working as an indicator of the permeability of the tested peptides.

[1] = system: human microvascular endothelial cell line HMEC-1; test: Membrane permeabilisation of HMEC-1 (LDH release); type: cell-based; details: 24 h; for cytotoxicity to HMEC-1 cells: 100 μM, LDH release; for membrane lysis (LDH release) of HMEC-1: 10^−7 M to 10^−4 M
Method: The membrane permeabilisation of the human microvascular endothelial cell line, HMEC-1, was evaluated using the Pierce LDH Cytotoxicity Assay Kit (Thermo Fisher Scientific, San Francisco, CA, USA). HMEC-1 cells were cultured in MCDB-131 medium (Life Technology, Paisley, UK) with 10% FBS, 10 ng/ml epidermal growth factor (EGF) (Life Technology, Paisley, UK), 10 mM L-glutamine (Life Technology, Paisley, UK), and 1% penicillin-streptomycin (Sigma-Aldrich, St. Louise, MO, USA), at 37°C under 5% CO2. Cells were seeded in a 96-well plate at 5000 cells per well and cultured overnight to 80% confluency. Then, the cells were treated with different peptide solutions of gradient concentrations from 10^−7 M to 10^−4 M for 24 h at 37°C, 5% CO2, and H2O-treated cells were made as the spontaneous LDH release control. Lysis buffer was added to cells and incubated for 45 min at 37°C, 5% CO2, to produce the lysis buffer-treated cells which were referred to as maximum LDH release control. Then 50 μl of each sample supernatant was transferred to a 96-well flat-bottom plate in triplicate wells, to which 50 μl of reaction mixture was added, incubated, and protected from light at room temperature for 30 min. After addition of 50 μl Stop Solution to each sample well and removal of bubbles present in sample wells, the absorbance at 490 nm and 680 nm was measured. The absorbance values at 680 nm were subtracted from the absorbance values at 490 nm before calculation of the level of LDH release (cytotoxicity). The level of LDH release was calculated as (2) LDH release %=L−L0/L1−L0×100%, where L refers to sample-treated LDH activity, L0 to spontaneous (H2O-treated) LDH activity, and L1 to maximum (lysis buffer-treated) LDH activity.
Data analysis was performed using one-way analysis of variance followed by Dunnett's multiple comparison tests with maximum LDH release control in GraphPad Prism (Version 6.0; GraphPad Software Inc., San Diego, CA, USA).

horse erythrocytes = test: Haemolytic test; type: cell-based; details: tested concentrations, horse red blood cells, 37°C, 2 h
Method: The haemolysis of Caeridins was tested on prepared defrinated horse red blood cells (TCS Biosciences Ltd., Buckingham, UK) by incubating equal volumes of peptide solutions with erythrocyte suspensions at 37°C for 2 H. Maximum haemolysis control was included by incubating equal volumes of 1% Triton X-100 (Sigma-Aldrich, St. Louis, MO, USA) with erythrocyte suspensions. Lysis of erythrocytes was detected by the measurement of supernatant absorbance at a wavelength of 550 nm using a Synergy HT plate reader (Biolise BioTek ELx808, Winooski, VT, USA). The level of haemolysis was as calculated as (3) Haemolysis %=A−A0/A1−A0×100%, where A represents the absorbance with peptide treatments, A0 represents the average absorbance in untreated erythrocytes, and A1 represents the average absorbance in the maximum haemolysis control (1% Triton X-100-treated).

[2] = system: rat urinary bladder smooth muscle; test: Rat urinary bladder smooth muscle test; details: organ bath, 37°C, n = 5
Method: (§2) Female Wistar rats (250–300 g) were euthanized by CO2 asphyxiation followed by cervical dislocation under appropriate Home Office (UK) animal licenses. Full urinary bladder and ileum were carefully removed from the abdomen, then placed in cold Kreb's solution (118 mM NaCl, 4.7 mM KCl, 25 mM NaHCO3, 1.15 mM NaH2PO4, 2.5 mM CaCl2, 1.1 mM MgCl2, and 5.6 mM glucose), equilibrated with a carbogen mixture (95% O2, 5% CO2). The prepared smooth muscles linked with transducers were placed in 2 ml capacity organ baths with Kreb's solution flowing through at 2 ml/min and maintained at 37°C with constant bubbling of carbogen gas mixture (95% O2, […]) and equilibrated for 1 h prior to analysis. Then the viability of these smooth muscle preparations was tested by 60 mM KCl. Caeridins were tested at sequential molar concentrations in the range from 10^−6 M to 10^−11 M. Dose-response curves were depicted for each Caeridin on individual smooth muscle preparations (n = 5). Changes in tension of the smooth muscle preparations were detected by pressure transducers connected to a PowerLab System (ADInstruments Pty Ltd.). Data were recorded and calculated to obtain the means of responses and standard error of means (SEM). The dose-response curve of each Caeridin was established using best-fit algorithms through the data analysis package provided by GraphPad Prism (Version 6.0; GraphPad Software Inc., San Diego, CA, USA), and the comparative EC50 value for each peptide was depicted.

S. aureus NCTC10788 = test: Antimicrobial test (broth microdilution); type: cell-based, Staphylococcus aureus; details: for MIC: MHB, 5 × 10^5 CFU/ml, 37°C overnight, 550 nm
Method: as §1

E. coli NCTC10418 = test: Antimicrobial test (broth microdilution); type: cell-based, Escherichia coli; details: for MIC: MHB, 5 × 10^5 CFU/ml, 37°C overnight, 550 nm
Method: as §1

rat ileum smooth muscle = test: Rat ileum smooth muscle test; details: organ bath, 37°C, n = 5
Method: as §2

Compound | MBC (MRSA NCTC12493) | MIC (MRSA NCTC12493) | MIC (E. faecalis NCTC12697) | MFC (C. albicans NCYC1467) | cytotoxicity to HMEC-1 cells [1] | haemolytic activity (horse erythrocytes) | MBC (S. aureus NCTC10788) | MIC (S. aureus NCTC10788) | MBC (E. faecalis NCTC12697) | MBC (E. coli NCTC10418) | MIC (E. coli NCTC10418) | MIC (C. albicans NCYC1467) | membrane-permeabilising activity on S. aureus (S. aureus) | membrane permeabilisation of E. coli at maximum tested concentration (E. coli) | membrane lysis (LDH release) of HMEC-1 ([1]; relative to lysis buffer) | further results
CC[C@H](C)[C@H](NC(=O)CN)C(=O)NCC(=O)N[C@@H](C)C(=O)N[C@H](C(=O)N[C@@H](CC(C)C)C(=O)N[C@@H](CCCCN)C(=O)N[C@H](C(=O)N[C@@H](CC(C)C)C(=O)N[C@H](C(=O)N[C@H](C(=O)NCC(=O)N[C@@H](CC(C)C)C(=O)N1CCC[C@H]1C(=O)N[C@@H](C)C(=O)N[C@@H](CC(C)C)C(=O)N[C@H](C(=O)N[C@@H](CO)C(=O)N[C@@H](Cc1c[nH]c2ccccc12)C(=O)N[C@H](C(=O)N[C@@H](CCCCN)C(=O)N[C@@H](CCCNC(=N)N)C(=O)N[C@@H](CCCCN)C(=O)N[C@@H](CCCNC(=N)N)C(=O)N[C@@H](CCC(N)=O)C(=O)N[C@@H](CCC(N)=O)C(N)=O)[C@@H](C)CC)[C@@H](C)CC)[C@@H](C)O)[C@@H](C)O)C(C)C)C(C)C [Melittin, reference compound] | 4 µM | 2 µM | 2 µM | 8 µM | significant cytotoxicity | eminent haemolysis from 1 μM |  |  |  |  |  |  |  |  |  | membrane permeability of S. aureus at MBC (S. aureus; peptide at its MBC, 37°C, 1 × 10^8 CFU/ml, relative to 70% isopropanol): 100%; membrane permeability of S. aureus at MIC (S. aureus; peptide at its MIC, 37°C, 1 × 10^8 CFU/ml, relative to 70% isopropanol): approximately 50%; membrane permeabilisation of E. coli at MIC and MBC (E. coli; 1 × 10^8 CFU/ml, PBS pH 7.4): higher absorbance at 420 nm; LDH release from HMEC-1 ([1]; 0.1 μM, relative to lysis buffer): approximately 10%
GLLDGLLGTLGL-NH2 [Caeridin-1] | > 512 µM | > 512 µM | > 512 µM | > 512 µM | weak cytotoxicity | weak haemolytic activities | > 512 µM | > 512 µM | > 512 µM | > 512 µM | > 512 µM | > 512 µM | barely showed membrane-permeabilising activity | failed to induce membrane permeabilisation | lower than 5% | maximum contraction effect on bladder smooth muscle preparations [2]: 0.3 g; EC50 ([2]; Kreb's solution, 10^−11 to 10^−6 M, read-out: EC50 inducing rat bladder smooth muscle contractions): 5.6 nM
N2H-GLLDSLLGGLGL-CONH2 [S5-Caeridin-1, novel Caeridin peptide from Litoria caerulea skin secretion, synthetic replicate, C-terminally amidated] | > 512 µM | > 512 µM | > 512 µM | > 512 µM | weak cytotoxicity | weak haemolytic activities | > 512 µM | > 512 µM | > 512 µM | > 512 µM | > 512 µM | > 512 µM | barely showed membrane-permeabilising activity | failed to induce membrane permeabilisation | lower than 5% | maximum relaxant effect on ileum smooth muscle preparations (rat ileum smooth muscle): 0.2 g; EC50 (rat ileum smooth muscle; Kreb's solution, 10^−11 to 10^−6 M, read-out: EC50 causing rat ileum smooth muscle relaxations): 9.5 nM
RPPGFSPFR [Bradykinin, reference compound] [listing 1 of 2 here] | > 512 µM | > 512 µM | > 512 µM | > 512 µM |  |  | > 512 µM | > 512 µM | > 512 µM | > 512 µM | > 512 µM | > 512 µM | barely showed membrane-permeabilising activity | failed to induce membrane permeabilisation |  | 
RPPGFSPFR [Bradykinin, reference compound] [listing 2 of 2 here] |  |  |  |  | weak cytotoxicity | weak haemolytic activities |  |  |  |  |  |  |  |  | lower than 5% | 
